According to patent publication US5143906A, “Kedarcidin antitumor chromophore and pharmaceutical composition containing same” (Bristol-Myers Squibb Company, priority 1991, dated 1992):
Values after ≈ are worked out from the molar mass of the structure shown.

Tests used:
[1] = test system: A2780/DDP drug resistant cell line; assay: In vitro cytotoxicity assay (XTT), A2780/DDP; type: cell-based, human
Method: (§1) The A2780/DDP cell line is reported to be resistant through enhanced DNA repair mechanisms and elevated GSH/GST levels. Cells were cultured in McCoy's media and 10% fetal bovine serum. When in log phase growth, 4×10^3 cells/well were plated into 96 well microtiter plates and incubated at 37° C. in […] /5% CO2 for 24 hours to allow cell attachment. Compounds were added to the top row of wells, serially diluted (4 fold dilutions) and incubated for an additional 72 hours. The number of viable cells in each well was then quantitated as previously described^2 by adding 0.05 mg/ml final concentration tetrazolium stain (XTT) in the presence of 0.005 mM final concentration phenazine methosulfate. After incubation at room temperature for 3 hours to allow color development, optical density values were measured using a Dynatech MR600 plate reader at […]. IC50 values (drug concentration inhibiting cell growth by 50%) were calculated using linear regression analysis of the optical density readings. Triplicate determinations on separate 96 well plates were done for each drug on each cell line tested.

[2] = test system: iv implanted P388 leukemia; assay: Antitumor activity against iv implanted P388 leukemia; type: in vivo, murine (CDF1 mice)
From the text: The P388 tumor was maintained in ascitic form in DBA/2 mice. Experimental tumor models used CDF^1 mice implanted via the intraperitoneal or intravenous route with 1×10^6 leukemia cells on day 0 and dosed with drugs according to the indicated route and schedule. Mice were weighed on day 0 and on day 5 or 6. Weight loss of 20% or greater was an indicator of drug toxicity. Each dose group consisted of 6 mice with 10 mice in the untreated control group. The dosing schedule was Q1DX1;1. Death checks were performed daily and the median life span of each group determined. […] Experiments were terminated on or about day 30.

[3] = test system: several human tumor cell lines; assay: In vitro cytotoxicity assay, several human tumor cell lines (summary); type: cell-based
From the text: as §1, with “The cell lines used to evaluate in vitro cytotoxic potency include the human colon adenocarcinoma HCT116 drug sensitive line, HCT 116/VP35 and HCT116/VM46 daughter drug resistant cell lines that have low Topoisomerase II and elevated P-170 glycoprotein levels^1; respectively, and the human ovarian carcinoma A2780 drug sensitive and the A2780/DDP daughter drug resistant cell line. The A2780/DDP” for “The A2780/DDP”, “density readings. […]” for “density readings. Triplicate determinations on separate 96 well plates were done for each drug on each cell line tested.”

COc1c(OC(C)C)cc2cc(O)c(C(=O)N[C@@H]3CC(=O)OC[C@@H](O[C@H]4C[C@H](O)[C@H](N(C)C)[C@H](C)O4)/C4=C/C#C[C@@H]5O[C@]56C(=C[C@H](Oc5ccc3nc5Cl)[C@@H]6O[C@H]3C[C@@](C)(O)[C@@H](O)[C@H](C)O3)C#C4)cc2c1OC [Kedarcidin chromophore]
fold less potent on the resistant cell line compared to the sensitive cell line ([1]; A2780/DDP vs A2780, 4320 min): about 6.6 fold
IC50 ([1]; A2780/DDP, 72 h, VP-16 values: mean of triplicate determinations from last 6 experiments): 1.3 ng/mL (≈ 1.26 nM)
% T/C ([2]; Exp. 8305, 0.125 mg/kg/dose): 186%
Av. wgt. change ([2]; Exp. 8305, 0.125 mg/kg/dose): -0.3 g
Med. surv. time ([2]; Exp. 8305, 0.125 mg/kg/dose): 13.0
No. of mice alive on d 5 ([2]; Exp. 8305, 0.125 mg/kg/dose): 6/6
% T/C ([2]; Exp. 8305, 0.25 mg/kg/dose): 214%
Av. wgt. change ([2]; Exp. 8305, 0.25 mg/kg/dose): -0.8 g
Med. surv. time ([2]; Exp. 8305, 0.25 mg/kg/dose): 15.0
No. of mice alive on d 5 ([2]; Exp. 8305, 0.25 mg/kg/dose): 6/6
% T/C ([2]; Exp. 8305, 0.5 mg/kg/dose): 107%
Av. wgt. change ([2]; Exp. 8305, 0.5 mg/kg/dose): -2.9 g
Med. surv. time ([2]; Exp. 8305, 0.5 mg/kg/dose): 7.5
No. of mice alive on d 5 ([2]; Exp. 8305, 0.5 mg/kg/dose): 6/6
% T/C ([2]; Exp. 8305, 1 mg/kg/dose): TOX
Med. surv. time ([2]; Exp. 8305, 1 mg/kg/dose): TOX
No. of mice alive on d 5 ([2]; Exp. 8305, 1 mg/kg/dose): 0/6
% T/C ([2]; Exp. 8305, 2 mg/kg/dose): TOX
Med. surv. time ([2]; Exp. 8305, 2 mg/kg/dose): TOX
No. of mice alive on d 5 ([2]; Exp. 8305, 2 mg/kg/dose): 0/6
% T/C ([2]; Exp. 8305, 4 mg/kg/dose): TOX
Med. surv. time ([2]; Exp. 8305, 4 mg/kg/dose): TOX
No. of mice alive on d 5 ([2]; Exp. 8305, 4 mg/kg/dose): 0/6
optimal dose ([2]; Exp. 8305, iv one day after tumor implant): 0.25 mg/kg/inj
% T/C ([2]; Exp. 8328, 0.125 mg/kg/dose): 186%
Av. wgt. change ([2]; Exp. 8328, 0.125 mg/kg/dose): -2.5 g
Med. surv. time ([2]; Exp. 8328, 0.125 mg/kg/dose): 13.0
No. of mice alive on d 5 ([2]; Exp. 8328, 0.125 mg/kg/dose): 6/6
% T/C ([2]; Exp. 8328, 0.25 mg/kg/dose): 100%
Av. wgt. change ([2]; Exp. 8328, 0.25 mg/kg/dose): -2.4 g
Med. surv. time ([2]; Exp. 8328, 0.25 mg/kg/dose): 7.0
No. of mice alive on d 5 ([2]; Exp. 8328, 0.25 mg/kg/dose): 6/6
% T/C ([2]; Exp. 8328, 0.5 mg/kg/dose): TOX
Med. surv. time ([2]; Exp. 8328, 0.5 mg/kg/dose): TOX
No. of mice alive on d 5 ([2]; Exp. 8328, 0.5 mg/kg/dose): 0/6
% T/C ([2]; Exp. 8328, 1.0 mg/kg/dose): TOX
Med. surv. time ([2]; Exp. 8328, 1.0 mg/kg/dose): TOX
No. of mice alive on d 5 ([2]; Exp. 8328, 1.0 mg/kg/dose): 0/6
optimal dose ([2]; Exp. 8328, iv, Q1DX1;1): 0.125 mg/kg/inj
ability to inhibit cell growth ([3]; compared to VP-16): extremely potent
antitumor in vitro activity ([3]; several human tumor cell lines): potent antitumor in vitro activity
